# Results reported in patent US20230130102A1, “Na/K-ATPase LIGANDS AND USE THEREOF FOR TREATMENT OF CANCER” (Marshall University Research Corporation, priority 2019, published 2023).
# “Also recorded” adds a separate entry of the source.
# How the values were obtained:
# PC3 cells = assay: 3D culture spheroid invasion and growth, PC3; assay type: cell-based, human
# Description: (§1) 3D culture-spheroid invasion assay. Cells were trypsinized gently (0.05% Trypsin-EDTA) and diluted at 1000 cells in 20 μl of full serum media for DU145 and C4-2 derived sub-clones or 500 cells in 20 ul for PC3 cells and allowed to form spheroids using hanging drop technique for 3 days, as described previously. Generated spheroids were then embedded into 3D matrix (not yet solidified at the time of experiment), as described in the previous section, on top of a 1% solidified agarose coating in 48 well plates. Spheroids were monitored from day 1 to different time points and images were taken using a phase contrast microscope fitted with camera, at same settings. Spheroid growth or invasion area was quantified using ImageJ software from NIH. The following formulas were used for quantitation of spheroids:
# (§2) Spheroid invasion=(Invasion area/Spheroid area)*100
# (§3) Spheroid growth=(Spheroid area at Day 3 or 7-Spheroid area at 16 hours)/Spheroid area at 16 hours
# (§4) For drug treatment, compound was diluted into media, from stock solution. For MMP secretion, conditioned media for 3 days were collected from top of matrix and assessed for MMP secretion by Western blot using Matrix Remodeling Antibody Sampler kit from Cell Signaling Technology (Cat #73959).
# DU145 derived subclones = assay: Western blot / immunostaining of EMT markers, Src/FAK activation and proliferation markers in DU145 derived subclones; assay type: cell-based, human; conditions: for expression of PCNA: 72 hours
# Description: (§5) Western blot, Immunoprecipitation and Immunostaining. Cells were grown to 100% confluency and Western blot were performed as described before. Images were quantified with ImageJ software from NIH. Immunoprecipitation studies were performed as described before. α1 NKA immunostaining was performed by growing cells on sterilized coverslips in 6 well tissue culture plates and permeabilization/fixation with ice-cold methanol followed by blocking with 5% horse serum and 0.1% Triton X-100 in 1× Phosphate buffered saline (PBS) for 30 minutes. Coverslips were then stained with an anti-α1 NKA antibody (Millipore, Cat #05-369) at 1:100 dilution in 1% BSA (Bovine Serum Albumin) containing 1×PBS solution for overnight. Next day after three washes, coverslips were stained with Alexa Fluor 488 conjugated anti-mouse secondary antibody (Thermo-Fisher) for 1 hour, washed extensively and then imaged using a fluorescent microscope with GFP filter or confocal microscope (LEICA-DMIRE2). E-cadherin and occludin immunostaining was performed in a similar manner. Phospho-Src, phospho ERK1/2 immunostaining were performed as described before and images were taken with a LEICA DMIRE2 confocal microscope.
# Next, it was tested whether MB5 as an inverse agonist of NKA receptor function could reverse EMT and stop invasion of PCa cells by rescuing α1 NKA expression in PCa. Subclone 5 and 2 cells were exposed to a long term treatment (0, 24, 48 and 72 hours) with 100 nM MB5.
# [1] = test system: clone 2 spheroids (DU145 derived); assay: 3D culture spheroid invasion assay, subclone 2; assay type: cell-based, human
# Description: as §1, §2, §3, §4
# P450 enzymes = assay: metabolism by P450 enzymes; assay type: in vitro ADME
# YFP-tagged α1 NKA = target: T1, YFP-tagged α1 NKA (Rattus norvegicus, UniProt P06685); assay: ouabain-induced α1 NKA endocytosis in YFP-α1-TCN cells; assay type: cell-based; conditions: YFP-α1-TCN cells, pretreatment
# T1 construct: expressed in transfected cells; host or cells: YFP-α1-TCN cells
# Description: It is appreciated that ouabain induces Src/ERK activation (increased protein phosphorylation) of LLC-PK1 cells by binding to α1 NKA and thereby initiates a signaling cascade which results in the endocytosis of the α1 NKA to terminate the signaling.
# α1 NKA endocytosis assay. Endocytosis assay was performed as described before.
# Characterization of MB5 activity on the NKA receptor function known as the NKA/Src binary receptor mechanism was conducted in a pig kidney epithelial cells (LLC-PK1)-based platform using immunostaining and Western blot analyses. […] The change of NKA conformation that occurs upon binding of agonists such as ouabain, results in the release and activation of the Src kinase domain from the “Naktide” site of NKA CD3, while the other interaction (constitutive) persists between NKA CD2 and the SH2 domain of Src.
# [2] = test system: EGF or dopamine induced ERK activation; assay: EGF- or dopamine-induced ERK activation in LLC-PK1 cells; assay type: cell-based, pig
# Description: as §5, with “microscope. […]” for “microscope.”
# PY17 cells = assay: basal ERK phosphorylation in PY17 cells; assay type: cell-based, pig
# Description: as §5, with “microscope. […]” for “microscope.”
# subclone 2 cells = assay: Boyden chamber migration assay; assay type: cell-based, human
# Description: Boyden chamber assay. Different sub-clones were grown up to 100% confluency and then gently trypsinized with 0.05% trypsin-EDTA and 100,000 cells were plated in upper chamber of a […] containing transwell filter with 0.5% FBS containing media. Full serum (10% FBS) containing media was added to the lower chamber as chemoattractant. After 16 hours, a colorimetric assay was used to determine the migration of cells to the lower side of the filter, with absorbance read at 590 nm. Briefly, lower sides of the transwell were washed with 1×PBS and then fixed with ice cold methanol for 10 minutes. After gentle washes with 1×PBS, lower side of the filter were stained with Crystal violet solution (0.5% Crystal Violet in 20% Ethanol), washed and the stain was extracted with methanol. Result was normalized against migration of sub-clone 5 cells. For cell migration in presence of pharmacological compounds, cells at 100% confluency were pretreated for 24 hours with or without MB5, PP2 (Sigma-Aldrich, Catalogue No P0042) or FAK inhibitor I (Millipore, Catalogue No. 324877) and then assay was performed as described above.
# parental C4-2 cells = assay: 3D culture spheroid growth, C4-2; assay type: cell-based, human; conditions: parental C4-2, 0.1-2 μM, Day 1-7
# Description: as §1, §3
# [3] = Western blot, 100 nM, up to 72 hours
smiles,measurement,setting,value
O=c1c2cccc(O)c2oc2c(O)c(O)ccc12 [MB5],inhibition of spheroid size,"PC3 cells; PC3, 0.1 μM",about 25%
same,inhibition of spheroid size,"PC3 cells; PC3, 1 μM",~50%
same,spheroid size / growth,PC3 cells; PC3 spheroids,reduced spheroid invasion and growth; also recorded: reduced spheroid size in a concentration-dependent manner
same,spheroid invasion,"PC3 cells; PC3 spheroids, day 7",reduced spheroid invasion; also recorded: suppressed spheroid invasion; also recorded: reduced both invasion
same,"Src, FAK activation and Myc expression","DU145 derived subclones; 100 nM, subclones 5 and 2",significant decrease
same,"expression of mesenchymal markers (SNAIL, ZEB1)",DU145 derived subclones; [3],downregulating; also recorded: decreased expression of mesenchymal markers
same,α1 NKA and E-cadherin expression,DU145 derived subclones; [3],increasing; also recorded: significant time-dependent increase; also recorded: increased α1 NKA and E-cadherin expression
same,expression of PCNA,"DU145 derived subclones; subclone 2, 100 nM",significantly reduced
same,expression of PCNA,"DU145 derived subclones; subclone 5, 100 nM",abolished
same,spheroid invasion,"[1]; clone 2 spheroids, 3D culture",abolished the invasion; also recorded: suppressed spheroid invasion by subclone 2 cells in a dose-dependent manner; also recorded: significantly reduced invasion of clone 2 spheroids in a dose-dependent manner
same,spheroid size,"[1]; subclone 2 spheroids, 72 hours",significantly reduced spheroid size
same,metabolism by P450 enzymes,P450 enzymes,not metabolized significantly
same,inhibition of ouabain-induced α1 NKA endocytosis,YFP-tagged α1 NKA,able to inhibit ouabain-induced α1 NKA endocytosis; also recorded: potent inverse agonist of ouabain-induced α1 NKA endocytosis; also recorded: inhibited ouabain-induced α1 NKA endocytosis in a concentration dependent manner
same,EGF-induced ERK activation,[2],did not inhibit; also recorded: failed to inhibit; also recorded: did not affect EGF-induced ERK activation
same,dopamine-induced ERK activation,[2],did not inhibit; also recorded: failed to inhibit; also recorded: did not affect dopamine-induced activation of ERK
same,basal ERK phosphorylation,PY17 cells,inhibited ERK phosphorylation in a dose-dependent manner
same,inhibition of migration of cancer cells,"subclone 2 cells; Boyden chamber assay, clone 2",about 50%
same,cell migration compared with PP2 and FAK inhibitor,subclone 2 cells; clone 2,as effectively as other kinase inhibitors
same,reduction of cell migration,"subclone 2 cells; pretreatment with 100 nM for 24 hours, subclone 2",50%
same,spheroid growth,parental C4-2 cells,did not significantly affect spheroid growth
